# Measured values published in US12514861B2, “Targeting DNA-PKCS and B7-H1 to treat cancer” (Mayo Foundation for Medical Education and Research, priority 2014, dated 2026).
# Where two headings read alike, the source gives them in different places.
# What was measured:
# [1] = system: B7-H1/624mel cells; assay: MTS tumor cell survival assay; type: cell-based; settings: for drug resistance of B7-H1/624mel cells compared with Mock/624mel cells (tumor cell survival): varying drug concentrations, 72 hours of culture, MTS assay
# Method: (§7) Cells were pre-treated with DMSO or NU7026 (10 uM) for 1 hour before treatment with doxorubicin (Dox). The relative survival of tumor cells was measured by MTS assay 72 hours after Dox treatment.
# Experiments were conducted to test whether B7-H1-expressing tumors would show resistance to drugs that cause DNA damage. Along with cisplatin, which crosslinks DNA, doxorubicin (a topoisomerase II inhibitor that leads to generation of free radicals) and SN38 (a topoisomerase I inhibitor) were tested. Drug sensitivity in B7-H1- and Mock-transfected 624mel melanoma cells was examined in cultures with varying concentrations of the drugs. After 72 hours of culture, tumor cell survival was measured with a MTS assay (Pei et al., Cancer Cell 16:259-266, 2009).
# (§8) To test whether the association of B7-H1 with DNA-PKcs is a mechanism of drug resistance, the effects of NU7026 on drug sensitivity of B7-H1- or Mock-transfected 624mel cells were tested. […] Using the same dose (10 uM) of NU7026, experiments were conducted to determine whether NU7026 would affect the drug sensitivity of B7-H1/624mel cells.
# [2] = biological target: DNA-PKcs (Homo sapiens, UniProt P78527); settings: cited from earlier work
# [3] = system: Mock/624mel cells; assay: MTS tumor cell survival assay; type: cell-based; settings: pretreatment with 10 uM NU7026 for 1 hour, MTS 72 hours after Dox
# Method: as §7, §8
# [4] = biological target: T1, co-localization of B7-H1 and DNA-PKcs at the nucleus (Homo sapiens, UniProt P78527); assay: Immunofluorescence staining of B7-H1 and DNA-PKcs co-localization; type: cell-based
# T1 construct: B7-H1 positive human breast cancer cells (MBA-MD-231) were used; endogenous in cells; host or cells: MDA-MB-231 human breast cancer cells
# T1 sequence (P78527 whole entry): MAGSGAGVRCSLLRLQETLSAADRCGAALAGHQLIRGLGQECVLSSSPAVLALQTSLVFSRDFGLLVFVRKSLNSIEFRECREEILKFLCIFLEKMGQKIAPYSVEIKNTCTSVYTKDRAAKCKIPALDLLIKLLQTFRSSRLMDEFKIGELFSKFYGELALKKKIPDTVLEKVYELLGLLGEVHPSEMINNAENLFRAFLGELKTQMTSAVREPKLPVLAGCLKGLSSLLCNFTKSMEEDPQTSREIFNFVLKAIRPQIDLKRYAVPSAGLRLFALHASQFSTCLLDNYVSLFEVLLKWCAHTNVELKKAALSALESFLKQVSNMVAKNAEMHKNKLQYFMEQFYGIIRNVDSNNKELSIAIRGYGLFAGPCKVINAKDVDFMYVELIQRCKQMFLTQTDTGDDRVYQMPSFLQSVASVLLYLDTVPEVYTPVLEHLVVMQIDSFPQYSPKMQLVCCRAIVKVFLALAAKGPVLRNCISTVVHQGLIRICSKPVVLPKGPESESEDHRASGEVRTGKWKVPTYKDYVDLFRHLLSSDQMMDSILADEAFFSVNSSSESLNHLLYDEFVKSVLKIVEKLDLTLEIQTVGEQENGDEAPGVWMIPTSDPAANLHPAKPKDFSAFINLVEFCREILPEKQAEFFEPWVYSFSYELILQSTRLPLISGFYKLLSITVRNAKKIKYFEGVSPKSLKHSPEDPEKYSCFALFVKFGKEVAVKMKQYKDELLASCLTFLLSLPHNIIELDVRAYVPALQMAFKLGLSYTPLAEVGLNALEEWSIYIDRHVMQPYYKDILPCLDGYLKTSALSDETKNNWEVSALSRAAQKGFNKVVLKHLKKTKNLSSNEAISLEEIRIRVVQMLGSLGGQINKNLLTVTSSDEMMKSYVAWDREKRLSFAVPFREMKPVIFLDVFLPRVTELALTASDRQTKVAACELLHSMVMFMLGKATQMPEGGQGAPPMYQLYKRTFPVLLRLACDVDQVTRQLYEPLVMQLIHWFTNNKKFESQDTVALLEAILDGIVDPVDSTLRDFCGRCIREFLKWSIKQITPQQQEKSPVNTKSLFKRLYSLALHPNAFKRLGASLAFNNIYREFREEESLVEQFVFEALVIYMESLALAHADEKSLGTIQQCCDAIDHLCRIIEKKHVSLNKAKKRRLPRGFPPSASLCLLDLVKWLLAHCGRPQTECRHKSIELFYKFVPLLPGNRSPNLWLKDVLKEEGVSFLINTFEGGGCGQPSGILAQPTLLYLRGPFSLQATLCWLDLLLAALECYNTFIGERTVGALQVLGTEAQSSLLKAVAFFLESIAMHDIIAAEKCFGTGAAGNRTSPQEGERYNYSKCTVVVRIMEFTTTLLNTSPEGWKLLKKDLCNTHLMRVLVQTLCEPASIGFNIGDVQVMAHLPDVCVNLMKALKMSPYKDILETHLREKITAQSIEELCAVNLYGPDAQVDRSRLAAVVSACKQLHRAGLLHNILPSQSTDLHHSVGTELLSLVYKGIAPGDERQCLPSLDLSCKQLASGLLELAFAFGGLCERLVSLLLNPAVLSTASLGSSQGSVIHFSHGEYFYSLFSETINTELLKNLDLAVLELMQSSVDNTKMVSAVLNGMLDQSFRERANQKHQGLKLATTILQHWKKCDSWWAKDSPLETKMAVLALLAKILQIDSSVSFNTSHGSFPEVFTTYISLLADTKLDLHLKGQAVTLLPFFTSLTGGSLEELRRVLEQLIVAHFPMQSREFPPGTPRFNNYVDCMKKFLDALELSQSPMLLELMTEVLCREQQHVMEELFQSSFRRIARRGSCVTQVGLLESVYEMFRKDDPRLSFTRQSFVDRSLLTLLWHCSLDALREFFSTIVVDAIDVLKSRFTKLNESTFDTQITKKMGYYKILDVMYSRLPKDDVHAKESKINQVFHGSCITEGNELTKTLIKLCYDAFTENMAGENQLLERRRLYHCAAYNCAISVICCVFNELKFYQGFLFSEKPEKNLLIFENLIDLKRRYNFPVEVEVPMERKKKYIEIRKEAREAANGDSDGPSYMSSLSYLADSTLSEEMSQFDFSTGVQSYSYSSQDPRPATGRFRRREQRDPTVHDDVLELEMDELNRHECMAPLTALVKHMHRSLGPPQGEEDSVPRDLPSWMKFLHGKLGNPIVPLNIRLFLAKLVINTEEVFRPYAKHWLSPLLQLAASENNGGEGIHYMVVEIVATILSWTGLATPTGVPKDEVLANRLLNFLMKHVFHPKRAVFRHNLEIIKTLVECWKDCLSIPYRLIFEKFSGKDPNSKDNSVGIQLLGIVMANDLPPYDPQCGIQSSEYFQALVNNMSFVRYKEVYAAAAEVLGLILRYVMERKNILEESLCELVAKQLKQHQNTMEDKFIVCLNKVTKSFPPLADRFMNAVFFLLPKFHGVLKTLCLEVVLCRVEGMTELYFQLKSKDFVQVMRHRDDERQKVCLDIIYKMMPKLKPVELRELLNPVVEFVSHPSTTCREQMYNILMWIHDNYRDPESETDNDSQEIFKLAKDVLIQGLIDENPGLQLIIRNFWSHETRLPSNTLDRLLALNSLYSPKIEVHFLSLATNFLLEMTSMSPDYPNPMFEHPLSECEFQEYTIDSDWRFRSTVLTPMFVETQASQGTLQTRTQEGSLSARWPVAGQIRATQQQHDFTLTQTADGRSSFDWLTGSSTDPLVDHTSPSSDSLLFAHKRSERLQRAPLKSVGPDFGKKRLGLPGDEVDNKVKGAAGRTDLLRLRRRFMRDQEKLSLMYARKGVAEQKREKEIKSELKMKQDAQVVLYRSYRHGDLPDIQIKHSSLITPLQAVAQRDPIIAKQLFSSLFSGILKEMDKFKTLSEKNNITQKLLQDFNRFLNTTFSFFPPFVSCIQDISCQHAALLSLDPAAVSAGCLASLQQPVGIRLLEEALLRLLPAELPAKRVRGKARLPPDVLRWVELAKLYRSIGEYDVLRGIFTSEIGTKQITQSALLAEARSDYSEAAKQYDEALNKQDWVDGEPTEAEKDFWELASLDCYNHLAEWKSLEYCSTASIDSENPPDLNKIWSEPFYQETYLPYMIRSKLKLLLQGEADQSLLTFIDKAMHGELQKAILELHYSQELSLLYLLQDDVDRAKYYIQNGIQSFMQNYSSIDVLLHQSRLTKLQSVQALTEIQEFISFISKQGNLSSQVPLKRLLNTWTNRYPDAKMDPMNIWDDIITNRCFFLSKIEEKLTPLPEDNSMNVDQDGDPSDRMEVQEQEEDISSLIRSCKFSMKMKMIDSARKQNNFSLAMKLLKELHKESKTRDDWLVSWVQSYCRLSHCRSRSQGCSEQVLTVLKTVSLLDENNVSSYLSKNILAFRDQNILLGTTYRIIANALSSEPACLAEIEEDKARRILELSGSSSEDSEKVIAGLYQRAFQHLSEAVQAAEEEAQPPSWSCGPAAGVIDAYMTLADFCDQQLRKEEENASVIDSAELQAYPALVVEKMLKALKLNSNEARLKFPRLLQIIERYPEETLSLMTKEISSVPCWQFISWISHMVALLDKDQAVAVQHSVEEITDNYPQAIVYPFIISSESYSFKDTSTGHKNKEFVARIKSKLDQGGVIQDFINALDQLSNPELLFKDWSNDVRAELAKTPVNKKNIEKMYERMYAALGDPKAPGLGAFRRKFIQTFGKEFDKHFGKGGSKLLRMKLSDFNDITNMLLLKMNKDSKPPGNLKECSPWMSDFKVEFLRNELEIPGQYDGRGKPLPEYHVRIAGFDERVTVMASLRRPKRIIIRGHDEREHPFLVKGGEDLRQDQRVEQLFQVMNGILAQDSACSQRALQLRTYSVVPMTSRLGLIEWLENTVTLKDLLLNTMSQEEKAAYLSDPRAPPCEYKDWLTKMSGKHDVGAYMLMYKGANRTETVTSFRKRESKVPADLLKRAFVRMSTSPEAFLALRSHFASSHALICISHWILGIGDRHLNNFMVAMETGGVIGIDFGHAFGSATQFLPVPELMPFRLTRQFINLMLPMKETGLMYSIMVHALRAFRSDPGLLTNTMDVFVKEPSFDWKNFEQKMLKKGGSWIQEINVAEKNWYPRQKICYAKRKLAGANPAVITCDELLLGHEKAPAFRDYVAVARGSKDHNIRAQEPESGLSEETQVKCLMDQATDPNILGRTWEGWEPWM
# Method: FIG. 6 is a series of pictures showing co-localization of B7-H1 and DNA-PKcs. A human breast tumor cell line (MDA-MB-231) was treated with doxorubicin (2 ug/ml) for 2 hours. […] Arrows or arrowheads indicate B7-H1 in plasma or in nuclei, respectively.
# (§1) MBA-MD-231 human breast cancer cells, which are positive for B7-H1, were incubated with NU7026, an inhibitor of DNA-PKCs. […] FIG. 15B is a series of pictures from an immunofluorescence assay in which the cells treated with doxorubicin, NU7026, or both, and stained for DNA-PKcs, DNA, or B7-H1. Doxorubicin-induced co-localization (arrow, upper right panel) of B7-H1 and DNA-PKcs at the nucleus was blocked by NU7026 (lower right panel).
# B7-H1 undergoes redistribution from the cell surface into the nucleus in human breast tumor cells upon treatment with the cytotoxic drug, doxorubicin (Ghebeh et al., supra).
# (§2) B7-H1 positive human breast cancer cells (MBA-MD-231) were used to examine the association of DNA-PKcs and B7-H1.
# [5] = system: PI3K; settings: read-out: IC50 for inhibition of PI3K; cited from earlier work
# [6] = biological target: T2, association of B7-H1 with DNA-PKcs (Homo sapiens, UniProt P78527); assay: Immuno-precipitation assay of B7-H1 association with DNA-PKcs; type: cell-based; settings: B7-H1 positive human breast cancer cells (MBA-MD-231)
# T2 construct: B7-H1 positive human breast cancer cells (MBA-MD-231) were used; endogenous in cells; host or cells: MDA-MB-231 human breast cancer cells
# T2 sequence (P78527 whole entry): as above
# Method: as §1, §2
# [7] = system: ERK1/2 activation in B7-H1/624mel cells; assay: Intracellular flow cytometry for phospho-ERK1/2; type: cell-based; settings: 10 uM, 24 hours
# Method: (§3) FIG. 9 is a series of graphs plotting the levels of phosphorylated ERK (top graphs) and total ERK (bottom graphs) in Mock/624mel (left) and B7-H1/624mel (right) tumor cells treated with DMSO or NU7026. Cells were treated with DMSO or NU7026 (10 uM) for 24 hours before intracellular staining for phospho-ERK or total ERK. Numbers are MFI. Inhibition of DNA-PKcs reduced ERK activation, as indicated in the diagram on the right.
# (§4) To test the role of DNA-PKcs in activation of the MAPK signal cascade, tumor cells were treated with NU7026, a DNA-PKcs specific inhibitor. […] As a mechanism of action of ERK1/2 in drug resistance, ERK1/2 phosphorylates Bim and enhances degradation of Bim in tumor cells (Gillings, et al., FEBS J 276:6050-6062, 2009; and Luciano et al., Oncogene 22:6785-6793, 2003).
# [8] = system: ERK1/2 activation in Mock/624mel cells; assay: Intracellular flow cytometry for phospho-ERK1/2; type: cell-based; settings: 10 uM, 24 hours
# Method: as §3, §4
# [9] = system: B7-H1/624mel cells; assay: Apoptosis by Annexin V binding and TMRE staining; type: cell-based; settings: doxorubicin 1.5 ug/ml, 48 hr
# Description: (§5) FIG. 1A is a series of graphs plotting relative survival of Mock/624mel (triangles) and B7-H1/624mel (squares) cells treated with the indicated drugs, as determined by MTS (3-(4,5-dimethylthiazol-2-yl)-5-(3-carboxymethoxyphenyl)-2-(4-sulfophenyl)-2H-tetrazolium) assay. The p-value for area under the curve (dose-response curves) was significant (p<0.01) for treatment with cisplatin (left), doxorubicin (center), and SN38 (right). One of three experiments is shown. Apoptosis of tumor cells treated with doxorubicin (1.5 ug/ml, 48 hr.) was analyzed by tetramethylrhodamine ethyl ester (TMRE) and Annexin V staining (FIG. 1), and by intracellular staining for active caspase-3 (FIG. 1C). Numbers are percentages of gated population.
# (§6) Experiments were conducted to test whether B7-H1-expressing tumors would show resistance to drugs that cause DNA damage. […] After 72 hours of culture, tumor cell survival was measured with a MTS assay (Pei et al., Cancer Cell 16:259-266, 2009). […] Since a mechanism of action of most cytotoxic drugs is to induce apoptosis (Sedletska et al., Curr Med Chem Anti-cancer Agents 5:251-265, 2005; and Wang et al., J Biol Chem 279:25535-25543, 2004), apoptosis of B7-H1/624mel and Mock/624mel tumor cells was measured and compared after treatment with doxorubicin. […]
# [10] = system: B7-H1/624mel cells; assay: Intracellular staining for active caspase-3; type: cell-based; settings: doxorubicin 1.5 ug/ml, 48 hr
# Description: as §5, §6
compound,measurement,setting,value
CCc1c2c(nc3ccc(O)cc13)-c1cc3c(c(=O)n1C2)COC(=O)[C@]3(O)CC [SN38],drug resistance of B7-H1/624mel cells compared with Mock/624mel cells (tumor cell survival),[1],more resistant
O=c1cc(N2CCOCC2)oc2c1ccc1ccccc12 [NU7026],inhibition of DNA-PKcs activity,[2]; 10 uM,completely inhibits
same,IC50,[2]; read-out: IC50 for inhibiting DNA-PKcs activity,230 nM
same,IC50,[2]; read-out: IC50 to inhibit DNA-PKcs,230 nM
same,effect on drug sensitivity of Mock/624mel cells,[3],increased the drug sensitivity
same,effect on doxorubicin-induced co-localization of B7-H1 and DNA-PKcs at the nucleus,"[4]; MBA-MD-231 cells, 1 μM NU7026",blocked
same,IC50,[5],13 µM
same,effect on association of B7-H1 with DNA-PKcs,[6],abolished
same,decrease of activation of ERK1/2 (phospho-ERK),[7],~2 fold
same,decrease of activation of ERK1/2 (phospho-ERK),[8],not
same,effect on resistance of B7-H1/624mel cells to doxorubicin,"[1]; pretreatment with 10 uM NU7026 for 1 hour, MTS 72 hours after Dox",lost their resistance to doxorubicin
COc1cccc2c1C(=O)c1c(O)c3c(c(O)c1C2=O)C[C@@](O)(C(=O)CO)C[C@@H]3O[C@H]1C[C@H](N)[C@H](O)[C@H](C)O1 [doxorubicin],localization of B7-H1 and DNA-PKcs after treatment with cytotoxic drug,"[4]; MDA-MB-231 cells, doxorubicin 2 ug/ml, 2 hours",co-localization of B7-H1 and DNA-PKcs was observed in the nuclei
same,apoptosis in B7-H1/624mel cells compared to Mock/624mel cells (fold less),[9],5 fold
same,drug resistance of B7-H1/624mel cells compared with Mock/624mel cells (tumor cell survival),[1],more resistant
same,level of active caspase-3 in B7-H1/624mel cells compared with Mock/624mel cells,[10],lower
N.N.[Cl][Pt][Cl] [cisplatin],drug resistance of B7-H1/624mel cells compared with Mock/624mel cells (tumor cell survival),[1],more resistant
